# Measurements as given in patent US20240353338A1 (priority 2023, published 2024).
# Test system: early Delta variant of SARS-CoV-2
# Type: cell-based
structure (smiles),measurement,value
C[C@@H](OC(C)(C)C)[C@H](NC(=O)OCc1ccccc1)C(=O)N[C@@H](CC1CCCCC1)C(=O)N[C@H](C=O)C[C@@H]1CCNC1=O [MPI8],antiviral effectiveness (virus growth by reverse transcriptase quantitative PCR),inhibition of virus growth
